Earlier results on three compounds are cited in US7456204B2, “Cyclohexylglycine derivatives as dipeptidyl peptidase inhibitors for the treatment or prevention of diabetes” (Merck & Co., Inc., priority 2003, dated 2008).

The subject of data set [1] is cardiac allograft survival. The settings on record: rats; from day 7 to day 14.
The subject of a further data set is hematopoiesis. To be noted: mouse, cyclophosphamide-induced neutropenia.
The target of another data set is T1, DP-IV (Homo sapiens, UniProt P27487).
T1 construct: GRF is rapidly degraded in plasma to GRF[3-44]
T1 sequence (P27487 39-766 limits assumed): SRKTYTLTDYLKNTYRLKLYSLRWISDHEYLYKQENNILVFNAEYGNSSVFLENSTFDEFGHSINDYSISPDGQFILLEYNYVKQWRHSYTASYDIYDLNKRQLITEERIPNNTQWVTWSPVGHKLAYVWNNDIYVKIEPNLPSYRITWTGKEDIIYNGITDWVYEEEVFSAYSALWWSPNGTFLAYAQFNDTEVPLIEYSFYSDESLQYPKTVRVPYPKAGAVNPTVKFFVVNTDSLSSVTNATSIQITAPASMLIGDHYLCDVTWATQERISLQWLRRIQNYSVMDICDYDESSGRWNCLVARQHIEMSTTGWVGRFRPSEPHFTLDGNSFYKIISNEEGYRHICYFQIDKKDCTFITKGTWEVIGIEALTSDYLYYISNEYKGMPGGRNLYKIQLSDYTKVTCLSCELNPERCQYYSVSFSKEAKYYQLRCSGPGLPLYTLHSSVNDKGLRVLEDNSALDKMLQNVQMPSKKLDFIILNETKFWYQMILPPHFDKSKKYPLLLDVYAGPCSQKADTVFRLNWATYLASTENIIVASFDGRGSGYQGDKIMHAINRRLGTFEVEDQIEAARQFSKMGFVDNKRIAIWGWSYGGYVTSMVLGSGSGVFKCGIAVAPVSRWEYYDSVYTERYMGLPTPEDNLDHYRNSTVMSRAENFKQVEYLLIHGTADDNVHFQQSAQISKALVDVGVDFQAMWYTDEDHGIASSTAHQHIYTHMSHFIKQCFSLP

For `CC(C)N1CCC(c2ccccc2)(c2ccccc2)CC1` [Prodipine, Pro-Pro-diphenyl-phosphonate], the cardiac allograft survival result in data set [1] was “double cardiac allograft survival”.
On to `CC(C)[C@H](N)C(=O)N1CCC[C@H]1B(O)O` [Val-Boro-Pro], for which, in the data set on hematopoiesis, the hematopoiesis entry is on record as “stimulated hematopoiesis”.
Regarding `CC[C@H](C)[C@H](N)C(=O)N1CCC[C@H]1C(=O)N[C@H](C(=O)O)[C@@H](C)CC` [diprotin A], the “degradation of GRF in plasma to GRF[3-44]” value on DP-IV is recorded as “prevented”.
